Read-outs that look alike come from different tables or passages of the source.
How the values were obtained:
CphA = biological target: T1, CphA (Aeromonas hydrophila, UniProt P26918); conditions: cited from earlier work
T1 construct: made in house

L1 [1] = biological target: T2, L1 (Stenotrophomonas maltophilia, UniProt P52700); conditions: cited from earlier work
T2 construct: made in house

NDM-1 = biological target: T3, NDM-1 (Klebsiella pneumoniae, UniProt C7C422); type: biochemical; conditions: pre-incubation 0-180 min; supports reversible inhibition
T3 construct: made in house

L1 [2] = biological target: T2, L1; test: β-lactamase inhibition, fluorogenic FC5 hydrolysis assay; type: biochemical
[3] = system: NDM-1-producing Escherichia coli clinical isolates; test: Antimicrobial susceptibility testing, MIC by agar dilution; type: cell-based; conditions: antibiotic alone; for MIC: Escherichia coli, strain S117, Ec, read-out: Cef/MEM MIC
Experimental: (§1) Minimal inhibitory concentration (MIC) values were determined by the agar dilution method and interpreted using published guidelines described by EUCAST/CLSI.[57] All reported MIC values are within ±1 log2 dilution of the reference MIC values.

[4] = system: NDM-1-producing Klebsiella pneumoniae clinical isolates; test: as above; type: cell-based; conditions: antibiotic alone; for MIC: Klebsiella pneumoniae, strain B64, Kp, read-out: Cef/MEM MIC
Experimental: as §1

[5] = system: six NDM-1-producing clinical isolates of Escherichia coli and Klebsiella pneumoniae; test: Antimicrobial susceptibility testing, MIC, summary over six clinical isolates; type: cell-based; conditions: read-out: MIC in the absence of VNRX-5133; all six NDM-1-producing isolates
Experimental: as §1

OXA-10 = biological target: T4, OXA-10 (Pseudomonas aeruginosa, UniProt P14489); conditions: cited from earlier work
T4 construct: made in house
T4 sequence (P14489 20-266, species assumed): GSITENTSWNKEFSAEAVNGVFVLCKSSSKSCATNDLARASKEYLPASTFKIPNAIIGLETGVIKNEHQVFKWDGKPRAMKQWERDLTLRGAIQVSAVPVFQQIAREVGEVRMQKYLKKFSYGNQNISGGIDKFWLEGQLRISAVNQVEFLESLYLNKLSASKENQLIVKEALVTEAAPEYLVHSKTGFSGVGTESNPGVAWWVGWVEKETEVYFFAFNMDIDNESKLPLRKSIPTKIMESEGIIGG

T2 sequence (P52700 34-290): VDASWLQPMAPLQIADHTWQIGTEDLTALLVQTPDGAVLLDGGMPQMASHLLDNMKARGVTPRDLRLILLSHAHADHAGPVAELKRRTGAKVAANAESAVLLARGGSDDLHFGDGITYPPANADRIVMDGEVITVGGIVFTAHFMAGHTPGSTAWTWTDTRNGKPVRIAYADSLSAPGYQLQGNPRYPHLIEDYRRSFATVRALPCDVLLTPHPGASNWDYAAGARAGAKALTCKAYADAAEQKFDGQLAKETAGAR
T3 sequence (C7C422 29-270, looked up, species assumed): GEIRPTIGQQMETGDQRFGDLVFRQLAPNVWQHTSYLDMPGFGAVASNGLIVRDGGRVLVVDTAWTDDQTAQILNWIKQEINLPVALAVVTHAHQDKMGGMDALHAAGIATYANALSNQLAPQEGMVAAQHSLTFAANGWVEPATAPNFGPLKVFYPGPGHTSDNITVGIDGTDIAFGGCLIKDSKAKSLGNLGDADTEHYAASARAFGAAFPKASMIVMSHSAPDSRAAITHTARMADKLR
T1 sequence (P26918 28-254): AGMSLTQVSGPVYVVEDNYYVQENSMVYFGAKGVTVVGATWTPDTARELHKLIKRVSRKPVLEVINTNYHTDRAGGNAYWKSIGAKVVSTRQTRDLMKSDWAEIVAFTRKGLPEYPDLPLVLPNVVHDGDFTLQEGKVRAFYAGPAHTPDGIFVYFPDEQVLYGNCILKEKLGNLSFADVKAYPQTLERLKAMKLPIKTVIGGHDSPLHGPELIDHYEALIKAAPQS

MIC [3] [µg/mL]	Cef/MEM MIC ([3]; strain 91N, Ec) [μg mL^–1]	Cef/MEM MIC ([3]; strain IR57, Ec) [μg mL^–1]	MIC [4] [µg/mL]	Cef/MEM MIC ([4]; strain B68-1, Kp) [μg mL^–1]	Cef/MEM MIC ([4]; strain IR43, Kp) [μg mL^–1]	MIC [5] [µg/mL]	SMILES	also measured
							NCc1ccc(C(=O)N[C@H]2Cc3cccc(C(=O)O)c3OB2O)cc1 [CB2]	IC50 (CphA): > 100 µM; IC50 L1 (L1 [1]): not inhibited[41]
							NCCN[C@H]1CC[C@H](CC(=O)N[C@H]2Cc3cccc(C(=O)O)c3OB2O)CC1 [VNRX-5133, (R)-3-(2-(trans-4-((2-Aminoethyl)amino)cyclohexyl)acetamido)-2-hydroxy-3,4-dihydro-2H-benzo[e][1,2]oxaborinine-8-carboxylic Acid]	effect of variation in pre-incubation time on IC50, NDM-1 (NDM-1): did not result in different IC50 values; inhibition of subclass B3 MBL L1 (in words) (L1 [2]): nor did it inhibit; IC50 (L1 [2]; B3 MBL, FC5): > 10 µM
> 64	>64	>64	> 64	>64	>64	> 64	C[C@@H](O)[C@H]1C(=O)N2C(C(=O)O)=C(S[C@@H]3CN[C@H](C(=O)N(C)C)C3)[C@H](C)[C@H]12 [MEM, meropenem]	
> 64	>64	>64	> 64	>64	>64	> 64	CO/N=C(\C(=O)N[C@@H]1C(=O)N2C(C(=O)[O-])=C(C[N+]3(C)CCCC3)CS[C@H]12)c1csc(N)n1 [Cef, cefepime]	
							O=C(O)C[C@@H]1CC[C@H](NC(=O)Cc2cccs2)B(O)O1 [vaborbactam]	IC50 (OXA-10; 100 mM aqueous sodium bicarbonate, read-out: IC50 OXA-10 (b)): > 400 µM; inhibition of OXA-10 (in words) (OXA-10): not inhibited; IC50 (OXA-10; without sodium bicarbonate, read-out: IC50 OXA-10): > 400 µM

Source: PMC6767355 (Journal of Medicinal Chemistry, 2019)
